Laboratory results taken from article PMC11314063, “Inhibition of DNA Topoisomerase Ι by Flavonoids and Polyacetylenes Isolated from Bidens pilosa L” (Molecules, 2024).
Like-named read-outs stand apart in the source and are kept apart here.

How the values were obtained:
A549 = test: SRB cytotoxicity assay, A549; assay type: cell-based; details: Homo sapiens, read-out: IC50 Cytotoxicity A549
From the text: (§1) The cell lines MDA-MB-231 (No. TCHu227), A549 (No. TCHu150), and HepG2 (No. TCHu72) were obtained from the Cell Bank/Stem Cell Bank, Chinese Academy of Sciences (Shanghai, China). The cell lines DLD-1 (No. CC0507) and HCT116 (No. CC0506) were obtained from the Cell Bank of Cellcook Biotech Co., Ltd. (Guangzhou, China). Cell line HL-7702 (No. BNCC338358) was obtained from Bena Culture Collection (Zhengzhou, China).
(§2) The human cancer cell lines MDA-MB-231 (breast adenocarcinoma), DLD-1 (colorectal adenocarcinoma), A549 (lung epithelial carcinoma), HCT116 (colorectal adenocarcinoma), HepG2 (hepatocellular carcinoma), and human hepatocyte HL-7702 were cultured in Dulbecco’s modified eagle medium (DMEM, Biological Industries, Beit Haemek, Israel) containing 10% (v/v) fetal bovine serum (FBS, Biological Industries, Beit Haemek, Israel) at 37 °C in a humidified incubator (ThermoFisher, Carlsbad, CA, USA) with a 5% CO2 atmosphere.

HCT116 = test: SRB cytotoxicity assay, HCT116; assay type: cell-based; details: Homo sapiens, read-out: IC50 Cytotoxicity HCT116
From the text: as §1, §2

MDA-MB-231 = test: SRB cytotoxicity assay, MDA-MB-231; assay type: cell-based; details: Homo sapiens, read-out: IC50 Cytotoxicity MDA-MB-231
From the text: as §1, §2

HepG2 = test: SRB cytotoxicity assay, HepG2; assay type: cell-based; details: Homo sapiens, read-out: IC50 Cytotoxicity HepG2
From the text: as §1, §2

DLD-1 = test: SRB cytotoxicity assay, DLD-1; assay type: cell-based; details: Homo sapiens, read-out: IC50 Cytotoxicity DLD-1
From the text: as §1, §2

[1] = SRB cytotoxicity assay, hepatocyte HL-7702; assay type: cell-based, human; details: SRB assay, 48 h, human hepatocyte, mean ± SD, read-out: IC50 Cytotoxicity HL-7702
From the text: as §1, §2

DNA Topo I = target: T1, DNA Topo I (Homo sapiens, UniProt P11387); test: Topo I inhibition assay (DNA relaxation assay); assay type: biochemical; details: for IC50: DNA relaxation assay, pBR322, mean ± SD; for inhibition at 400 µM: read-out: percentage inhibition on Topo I activity
T1 construct: purchased ThermoFisher, Waltham, MA, USA
T1 sequence (P11387 1-765): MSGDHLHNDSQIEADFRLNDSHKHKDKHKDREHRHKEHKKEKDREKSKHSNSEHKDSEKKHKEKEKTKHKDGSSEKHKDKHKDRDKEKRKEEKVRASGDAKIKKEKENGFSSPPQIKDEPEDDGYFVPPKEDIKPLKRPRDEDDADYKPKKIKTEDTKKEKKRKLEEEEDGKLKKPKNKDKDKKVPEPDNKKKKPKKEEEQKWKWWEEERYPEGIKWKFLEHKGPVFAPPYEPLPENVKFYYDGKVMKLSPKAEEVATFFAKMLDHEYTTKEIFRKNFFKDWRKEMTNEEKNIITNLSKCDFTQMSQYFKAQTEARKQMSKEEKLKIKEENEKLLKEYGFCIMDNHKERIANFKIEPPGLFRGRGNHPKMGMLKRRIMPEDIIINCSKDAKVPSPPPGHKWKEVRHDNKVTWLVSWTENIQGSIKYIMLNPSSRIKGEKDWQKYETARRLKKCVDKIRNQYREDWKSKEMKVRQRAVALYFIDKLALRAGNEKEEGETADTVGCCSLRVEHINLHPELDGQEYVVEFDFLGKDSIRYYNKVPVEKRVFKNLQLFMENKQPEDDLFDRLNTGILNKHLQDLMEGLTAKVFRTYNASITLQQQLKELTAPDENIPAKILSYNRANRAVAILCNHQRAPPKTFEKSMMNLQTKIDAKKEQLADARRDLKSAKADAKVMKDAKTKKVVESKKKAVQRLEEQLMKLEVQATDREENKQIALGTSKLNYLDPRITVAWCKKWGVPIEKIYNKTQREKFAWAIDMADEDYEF
Experimental: The DNA relaxation assay was adopted to investigate the compounds’ inhibitory activities on Topo I. Different concentrations of the compounds, dissolved and diluted in DMSO, were added into the relaxation buffer (50 mM Tris, pH 7.5, 50 mM KCl, 10 mM MgCl2, 0.1 mM EDTA, 0.5 Mm dithiothreitol, and 0.05 mg/mL bovine serum albumin) containing 0.2 U Topo I (ThermoFisher, Waltham, MA, USA) and incubated at room temperature for 10 min. After that, 500 ng supercoiled pBR322 plasmid DNA (ThermoFisher, Waltham, MA, USA) was added and then incubated at 37 °C for another 30 min. Finally, the reactions were stopped with a stopping solution (5% sodium dodecyl sulfate, 0.0025% bromophenol blue, and 25% glycerol), and the mixtures were applied onto 0.8% agarose gel and subjected to electrophoresis for 1.5 h in Tris-Acetate-EDTA buffer. After being stained with GelRed (Biotium, Fremont, CA, USA), the gel was imagined with the imaging system (Biotop, Shanghai, China). […] The band density of the supercoiled DNA was quantified by the ImageJ software (version 1.53a, National Institutes of Health, Bethesda, MD, USA), and the inhibition activity is expressed as the percentage inhibition and calculated by formula: Inhibition % = [(A − B)/(C − B)] × 100%, where A is the band density of the tested samples, B is the band density of the negative control, and C is the band density of the blank control.

[2] = SRB cytotoxicity assay, panel of five human cancer cell lines and one human hepatocyte cell line; details: human
Experimental: (§3) The cytotoxicities of 1–29 were tested by an SRB assay on a panel of five human cancer cell lines and one human hepatocyte cell line.
(§4) The cytotoxic activities of the compounds against cancer cells were examined with a sulforhodamine B (SRB) colorimetric assay. Cells were seeded at a density of 5 × 10^3/well in 96-well plates for 24 h; various concentrations of the tested compounds, dissolved in DMSO and diluted with the complete medium, were added in the wells in triplicate and incubated for 48 h. After that, the cell viability was assessed with the SRB assay as we described before. The IC50 values were determined using the Reed and Muench method and are expressed as the mean ± SD of at least three independent measurements.

DLD-1 cells = test: DNA content analysis (cell cycle, flow cytometry) in DLD-1; assay type: cell-based, human; details: 24 h; for percentage of cell population in the G2/M phase / percentage of cells in the G1/S (combined) phase: DLD-1, 2 μM
Experimental: Cells were seeded in 6-well plates and allowed to adhere for 24 h at 37 °C. After treatment with different concentrations of the samples for another 24 h, the cells were harvested and washed with PBS, and then, the DNA content analysis was conducted with a cell cycle staining kit (Multi sciences, Hangzhou, China), according to the manufacturer’s instructions. The fluorescence intensity of the cells was measured by flow cytometry (Beckman CytoFlex, Miami, FL, USA).

[3] = system: A549, HCT116, MDA-MB-231, HepG2, DLD-1, HL-7702; test: SRB cytotoxicity assay, panel of five human cancer cell lines and one human hepatocyte cell line; details: tested concentration of 200 μM
Experimental: as §3, §4

[4] = A549, SRB assay, 48 h, mean ± SD
[5] = HCT-116, SRB assay, 48 h, mean ± SD
[6] = MDA-MB-231, SRB assay, 48 h, mean ± SD
[7] = HepG2, SRB assay, 48 h, mean ± SD
[8] = DLD-1, SRB assay, 48 h, mean ± SD

| IC50 (DNA Topo I) [µM] | inhibition at 400 µM (DNA Topo I) [%] | Compound | IC50 (A549; [4]) [µM] | IC50 (HCT116; [5]) [µM] | IC50 (MDA-MB-231; [6]) [µM] | IC50 (HepG2; [7]) [µM] | IC50 (DLD-1; [8]) [µM] | IC50 at 48 h ([1]; HL-7702 hepatocyte cell line) [µM] | IC50 at 48 h [2] [µM] | percentage of cells in the G1/S phase (DLD-1 cells; DLD-1, 0.5 μM) [%] | percentage of cells in the G1/S phase (DLD-1 cells; DLD-1, 1 μM) [%] | percentage of cell population in the G2/M phase (DLD-1 cells) [%] | percentage of cells in the G1/S (combined) phase (DLD-1 cells) [%] | cytotoxicity in all cell lines [3] | IC50 (A549; A549, 48 h) [µM] | IC50 (HCT116; HCT-116, 48 h) [µM] | IC50 (MDA-MB-231; MDA-MB-231, 48 h) [µM] | IC50 (HepG2; HepG2, 48 h) [µM] | IC50 (DLD-1; DLD-1, 48 h) [µM] | IC50 at 48 h [1] [µM] |
| --- | --- | --- | --- | --- | --- | --- | --- | --- | --- | --- | --- | --- | --- | --- | --- | --- | --- | --- | --- | --- |
| > 400 | 24.6 | COc1ccc(/C=C/C(=O)c2ccc(OC)cc2O)cc1 [Compound 3] | 136 ± 25 | 178 ± 6.11 | 167 ± 5.63 | > 200 | 117 ± 11.6 | > 200 | ≥ 50.5 |  |  |  |  |  |  |  |  |  |  |  |
| 239 ± 31.4 |  | COc1ccc(-c2oc3c(O)c(OC)c(O)cc3c(=O)c2OC)cc1O [Compound 6] | 3.09 ± 0.28 | 0.59 ± 0.1 | > 200 | 34.6 ± 8.01 | 1.58 ± 0.07 | 23.9 ± 5.73 |  | 82.61 | 88.65 | 76.49 | 22.91 |  |  |  |  |  |  |  |
| 224 ± 27.2 |  | COc1cc(-c2oc3cc(O)c(OC)c(O)c3c(=O)c2OC)ccc1O [Compound 7] | 0.86 ± 0.03 | 0.43 ± 0.03 | 81.6 ± 7.43 | 28.4 ± 13.1 | 0.85 ± 0.02 | 11.4 ± 4.42 |  | 81.16 | 86.07 | 75.75 | 24.26 |  |  |  |  |  |  |  |
| > 400 | 28.6 | O=c1c(O[C@@H]2O[C@H](CO)[C@H](O)[C@H](O)[C@H]2O)c(-c2ccc(O)cc2)oc2cc(O)cc(O)c12 [Compound 11] | > 200 | > 200 | > 200 | > 200 | > 200 | > 200 |  |  |  |  |  | no cytotoxicity |  |  |  |  |  |  |
| > 400 | 38.6 | COc1ccc(-c2oc3cc(O[C@@H]4O[C@H](CO)[C@@H](O)[C@H](O)[C@H]4O)cc(O)c3c(=O)c2OC)cc1O [Compound 13] | > 200 | 139 ± 11.3 | > 200 | > 200 | 179 ± 5.94 | > 200 | ≥ 50.5 |  |  |  |  |  |  |  |  |  |  |  |
| > 400 |  | CC#CC#CC#C/C=C/CCC(CO)O[C@@H]1O[C@H](CO)[C@@H](O)[C@H](O)[C@H]1O (stereo partly drawn) [Compound 26] | 188 ± 15.8 | > 200 | > 200 | > 200 | > 200 | > 200 |  |  |  |  |  |  |  |  |  |  |  |  |
| > 400 |  | CC#CC#CC#CC#CCCC(CO)O[C@@H]1O[C@H](CO)[C@@H](O)[C@H](O)[C@H]1O (stereo partly drawn) [Compound 27] | 188 ± 14.9 | 112 ± 6.59 | 164 ± 11.7 | > 200 | 144 ± 7.36 | > 200 |  |  |  |  |  |  |  |  |  |  |  |  |
| > 400 |  | C=C[C@H](O)[C@H](/C=C/C#CC#CC#CC)O[C@@H]1O[C@H](CO)[C@@H](O)[C@H](O)[C@H]1O [Compound 28] | 190 ± 12.1 | > 200 | > 200 | > 200 | > 200 | > 200 |  |  |  |  |  |  |  |  |  |  |  |  |

| Compound | IC50 (DNA Topo I) [µM] | inhibition at 400 µM (DNA Topo I) [%] | IC50 (A549; [4]) [µM] | IC50 (HCT116; [5]) [µM] | IC50 (MDA-MB-231; [6]) [µM] | IC50 (HepG2; [7]) [µM] | IC50 (DLD-1; [8]) [µM] | IC50 at 48 h ([1]; HL-7702 hepatocyte cell line) [µM] | IC50 at 48 h [2] [µM] | percentage of cells in the G1/S phase (DLD-1 cells; DLD-1, 0.5 μM) [%] | percentage of cells in the G1/S phase (DLD-1 cells; DLD-1, 1 μM) [%] | percentage of cell population in the G2/M phase (DLD-1 cells) [%] | percentage of cells in the G1/S (combined) phase (DLD-1 cells) [%] | cytotoxicity in all cell lines [3] | IC50 (A549; A549, 48 h) [µM] | IC50 (HCT116; HCT-116, 48 h) [µM] | IC50 (MDA-MB-231; MDA-MB-231, 48 h) [µM] | IC50 (HepG2; HepG2, 48 h) [µM] | IC50 (DLD-1; DLD-1, 48 h) [µM] | IC50 at 48 h [1] [µM] |
| --- | --- | --- | --- | --- | --- | --- | --- | --- | --- | --- | --- | --- | --- | --- | --- | --- | --- | --- | --- | --- |
| CC#CC#CC#CC=CC1OCCCC1OC(C)=O (stereo not drawn) [Compound 24] | 218 ± 50.8 |  |  |  |  |  |  |  |  |  |  |  |  | no cytotoxicity | > 200 | > 200 | > 200 | > 200 | > 200 | > 200 |
| CC#CC#CC#C/C=C/CCC(CCO)O[C@@H]1O[C@H](CO)[C@@H](O)[C@H](O)[C@H]1O (stereo partly drawn) [Compound 25] | > 400 |  |  |  |  |  |  |  |  |  |  |  |  |  | 174 ± 12.3 | 162 ± 15.8 | > 200 | > 200 | 187 ± 17.4 | > 200 |
| C=CCCCCC[C@H](O)[C@@H](O)[C@H](C#CC#CCCC)OC [Compound 29] | > 400 |  |  |  |  |  |  |  |  |  |  |  |  | no cytotoxicity | > 200 | > 200 | > 200 | > 200 | > 200 | > 200 |
